Patent publication US12637471B2, “Heterocyclic compounds, compositions, methods of preparation and uses thereof” (Organon R&D Finland Ltd, priority 2021, dated 2026)

Experiments:
[1] = phase II clinical trial, endometriosis; trial was terminated; cited from earlier work
[2] = biological target: T1, Recombinant human AKR1C3 (17β-HSD5) protein (Homo sapiens, UniProt P42330); assay: Inhibition of AKR1C3 (17β-hydroxysteroid dehydrogenase type 5) enzyme, fluorescence assay; format: biochemical; settings: inhibitor at 500 nM
T1 construct: made in house; host or cells: E. coli
T1 sequence (P42330 1-323): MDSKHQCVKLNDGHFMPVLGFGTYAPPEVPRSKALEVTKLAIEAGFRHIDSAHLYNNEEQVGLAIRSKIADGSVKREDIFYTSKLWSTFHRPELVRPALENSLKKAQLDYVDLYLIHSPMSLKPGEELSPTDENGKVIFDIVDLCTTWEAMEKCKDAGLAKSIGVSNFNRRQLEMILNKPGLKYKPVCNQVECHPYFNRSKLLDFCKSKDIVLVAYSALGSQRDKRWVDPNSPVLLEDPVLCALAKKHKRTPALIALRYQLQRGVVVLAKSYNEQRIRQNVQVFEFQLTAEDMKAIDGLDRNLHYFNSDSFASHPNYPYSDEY
How it was run: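 Percent inhibition at 500 nM compound, derived from substrate conversion; product alcohol measured by fluorescence (ex 420, em 510 nm) against a 1 μM–10 nM standard curve. Reaction: 27 nM recombinant AKR1C3, 1 μM ketone substrate, 1 mM NADPH, phosphate/EDTA buffer pH 7.4, 1% DMSO, RT for 60–120 min.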

[3] = biological target: T2, Recombinant human aldo-keto reductase family 1 member C2 (AKR1C2) protein (Homo sapiens, UniProt P52895); assay: Inhibition of the aldo-keto reductase family 1 member C2, 3H-dihydrotestosterone conversion; format: biochemical; settings: inhibitor at 10 μM
T2 construct: made in house; host or cells: Sf-9 insect cells (baculovirus)
T2 sequence (P52895 1-323): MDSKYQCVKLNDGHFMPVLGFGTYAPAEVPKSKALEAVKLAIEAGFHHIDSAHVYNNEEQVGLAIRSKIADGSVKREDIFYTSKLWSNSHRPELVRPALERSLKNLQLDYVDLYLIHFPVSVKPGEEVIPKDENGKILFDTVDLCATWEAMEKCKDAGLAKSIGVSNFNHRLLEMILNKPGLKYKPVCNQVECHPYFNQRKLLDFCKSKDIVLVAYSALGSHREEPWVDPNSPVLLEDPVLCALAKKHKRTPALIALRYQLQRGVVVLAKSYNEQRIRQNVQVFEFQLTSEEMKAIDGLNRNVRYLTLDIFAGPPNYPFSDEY
How it was run: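 Single-point screen at 10 μM inhibitor, 1% DMSO: [3H]DHT (6.25 nM) reduction to 3α-diol by baculovirus-made AKR1C2 (13.6 nM), pH 7.4 phosphate buffer, 1 mM NADPH, 37 °C for 45 min. Radio-UPLC quantified product versus substrate to give percent inhibition.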

[4] = biological target: T3, 17β-Hydroxysteroid Dehydrogenase Type 2 Enzyme (17β-HSD2) (Homo sapiens, UniProt P37059); assay: Inhibition of the 17β-hydroxysteroid dehydrogenase type 2 enzyme, 3H-testosterone conversion; format: biochemical; settings: inhibitor at 10 μM
T3 construct: made in house; host or cells: Sf-9 insect cells (baculovirus)
T3 sequence (P37059 1-387): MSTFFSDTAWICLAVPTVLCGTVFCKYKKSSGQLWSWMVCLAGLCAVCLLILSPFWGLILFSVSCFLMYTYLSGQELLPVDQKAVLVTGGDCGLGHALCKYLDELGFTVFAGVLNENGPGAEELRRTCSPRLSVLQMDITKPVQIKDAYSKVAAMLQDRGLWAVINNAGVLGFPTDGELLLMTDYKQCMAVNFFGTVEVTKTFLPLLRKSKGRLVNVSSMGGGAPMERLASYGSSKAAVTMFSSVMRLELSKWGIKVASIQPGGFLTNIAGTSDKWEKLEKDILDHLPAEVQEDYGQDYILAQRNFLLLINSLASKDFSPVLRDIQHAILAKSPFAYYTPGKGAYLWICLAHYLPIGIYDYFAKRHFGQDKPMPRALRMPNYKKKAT
How it was run: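 Single-point screen at 10 μM inhibitor, 1% DMSO: Sf-9-expressed human enzyme (105 nM), NAD 1 mM, ³H-labelled testosterone 56.25 nM, pH 8.5 phosphate/EDTA buffer, 30 min, room temperature. After TCA quench, substrate and product radioactivity quantified by UPLC with scintillation detection; inhibition percent from conversion.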

Structure (SMILES) | inhibition at 0.5 µM [2] [%] | inhibition at 10 µM [3] [%] | inhibition at 10 µM [4] [%] | bilirubin levels of patients [1]
CN(CCC(=O)O)C(=O)c1ccc2c(c1)CC[C@@H]1[C@@H]2CC[C@]2(C)C(c3cncc(F)c3)=CC[C@@H]12 [BAY-1128688] | – | – | – | raised bilirubin levels
N#CC(=C1CCN(C(=O)N2CCc3sccc3C2)CC1)c1ccc(OC(F)(F)F)cc1 [Compound 117, 2-(1-(4,5,6,7-tetrahydrothieno[3,2-c]pyridine-5-carbonyl)piperidin-4-ylidene)-2-(4-(trifluoromethoxy)phenyl)acetonitrile] | 94 | 7 | 22 | –
N#CC(=C1CCN(C(=O)N2CCc3[nH]ncc3C2)CC1)c1ccc(F)c(F)c1 [Compound 43, 2-(3,4-difluorophenyl)-2-(1-(4,5,6,7-tetrahydro-1H-pyrazolo[4,3-c]pyridine-5-carbonyl)piperidin-4-ylidene)acetonitrile] | 103 | 29 | 21 | –
N#CC(=C1CCN(C(=O)N2CCn3nncc3C2)CC1)c1ccc(F)cc1 [Compound 13, 2-(4-fluorophenyl)-2-(1-(4,5,6,7-tetrahydro-[1,2,3]triazolo[1,5-a]pyrazine-5-carbonyl)piperidin-4-ylidene)acetonitrile] | 99 | 19 | 7 | –
N#CC(=C1CCN(C(=O)N2CCc3nocc3C2)CC1)c1ccc(C(F)(F)F)cc1 [Compound 87, 2-(1-(4,5,6,7-tetrahydroisoxazolo[4,3-c]pyridine-5-carbonyl)piperidin-4-ylidene)-2-(4-(trifluoromethyl)phenyl)acetonitrile] | 99 | 31 | 23 | –
N#CC(=C1CCN(C(=O)N2CCc3nocc3C2)CC1)c1ccc(F)cc1 [Compound 12, 2-(4-fluorophenyl)-2-(1-(4,5,6,7-tetrahydroisoxazolo[4,3-c]pyridine-5-carbonyl)piperidin-4-ylidene)acetonitrile] | 99 | 19 | 8 | –
N#CC(=C1CCN(C(=O)N2CCC(C(F)(F)F)CC2)CC1)c1ccc(F)cc1 [Compound 98, 2-(4-fluorophenyl)-2-(1-(4-(trifluoromethyl)piperidine-1-carbonyl)piperidin-4-ylidene)acetonitrile] | 97 | 8 | 18 | –
N#CC(=C1CCN(C(=O)N2CCn3cncc3C2)CC1)c1cccc2cn[nH]c12 [Compound 72, 2-(1H-indazol-7-yl)-2-(1-(5,6,7,8-tetrahydroimidazo[1,5-a]pyrazine-7-carbonyl)piperidin-4-ylidene)acetonitrile] | 98 | 9 | 26 | –
N#CC(=C1CCN(C(=O)N2C[C@@H]3CC[C@@H]2C3)CC1)c1ccc(F)cc1F [Compound 111, 2-(1-((1R,4R)-2-azabicyclo[2.2.1]heptane-2-carbonyl)piperidin-4-ylidene)-2-(2,4-difluorophenyl)acetonitrile] | 95 | 13 | 8 | –
N#CC(=C1CCN(C(=O)N2CCC(O)CC2)CC1)c1ccc(Cl)cn1 [Compound 62, 2-(5-chloropyridin-2-yl)-2-(1-(4-hydroxypiperidine-1-carbonyl)piperidin-4-ylidene)acetonitrile] | 90 | -4 | 4 | –
N#CC(=C1CCN(C(=O)N2CCCC2)CC1)c1ccc(F)cc1 [Compound 6, 2-(4-fluorophenyl)-2-(1-(pyrrolidine-1-carbonyl)piperidin-4-ylidene)acetonitrile] | 95 | 8 | 10 | –
Cn1ncc2cccc(C(C#N)=C3CCN(C(=O)N4CCc5[nH]ncc5C4)CC3)c21 [Compound 119, 2-(1-methyl-1H-indazol-7-yl)-2-(1-(4,5,6,7-tetrahydro-1H-pyrazolo[4,3-c]pyridine-5-carbonyl)piperidin-4-ylidene)acetonitrile] | 99 | 6 | 15 | –

Now from value to compound, other results behind:

inhibition at 0.5 µM [2] [%] | inhibition at 10 µM [3] [%] | inhibition at 10 µM [4] [%] | Structure (SMILES) | bilirubin levels of patients [1]
100 | 2 | 15 | COC1CCN(C(=O)N2CCC(=C(C#N)c3ccc(C(F)(F)F)cc3)CC2)CC1 [Compound 146, 2-(1-(4-methoxypiperidine-1-carbonyl)piperidin-4-ylidene)-2-(4-(trifluoromethyl)phenyl)acetonitrile] | –
98 | 13 | 12 | CCCOC1CCN(C(=O)N2CCC(=C(C#N)c3ccc(Cl)cc3)CC2)CC1 [Compound 134, 2-(4-chlorophenyl)-2-(1-(4-propoxypiperidine-1-carbonyl)piperidin-4-ylidene)acetonitrile] | –
99 | 15 | 27 | COC1CCN(C(=O)N2CCC(=C(C#N)c3ccc(Cl)s3)CC2)CC1 [Compound 78, 2-(5-chlorothiophen-2-yl)-2-(1-(4-methoxypiperidine-1-carbonyl)piperidin-4-ylidene)acetonitrile] | –
97 | 18 | 6 | CCOC1CCN(C(=O)N2CCC(=C(C#N)c3ccc(F)cc3F)CC2)CC1 [Compound 137, 2-(2,4-difluorophenyl)-2-(1-(4-ethoxypiperidine-1-carbonyl)piperidin-4-ylidene)acetonitrile] | –
98 | 9 | 17 | N#CC(=C1CCN(C(=O)N2CCC(CO)CC2)CC1)c1ccc(Cl)cc1 [Compound 74, 2-(4-chlorophenyl)-2-(1-(4-(hydroxymethyl)piperidine-1-carbonyl)piperidin-4-ylidene)acetonitrile] | –
